Measured values published in ChEMBL document CHEMBL1201862, “PubChem BioAssay data set” (2004).
The source made the active and inactive calls.

What was measured:
[1] = Luminescence Cell-Based Dose Response HTS to Identify Activators of Luciferase Translation or Activity in H4 […] Cells. [Related pubchem assays: 1829 (Project Summary), 1814 (Primary HTS)]; type: functional
H4 = experiment: Luminescence Cell-Based Dose Response HTS to Identify Activators of 5'UTR Stem-Loop Driven Prion Protein mRNA Translation in H4 Neuroglioblastoma Cells. [Related pubchem assays: 1829 (Project Summary), 1814 (Primary HTS)]; type: functional; conditions: Homo sapiens
[2] = target: T1, Corticotropin-releasing factor receptor 2/Corticotropin-releasing factor-binding protein (Homo sapiens, UniProt P24387+Q13324); experiment: activators of CRF receptor 2 with binding protein – uHTS hits, confirmation (AID 602473); type: functional; conditions: read-out: EC50_Mean
T1 sequence (Q13324 whole entry): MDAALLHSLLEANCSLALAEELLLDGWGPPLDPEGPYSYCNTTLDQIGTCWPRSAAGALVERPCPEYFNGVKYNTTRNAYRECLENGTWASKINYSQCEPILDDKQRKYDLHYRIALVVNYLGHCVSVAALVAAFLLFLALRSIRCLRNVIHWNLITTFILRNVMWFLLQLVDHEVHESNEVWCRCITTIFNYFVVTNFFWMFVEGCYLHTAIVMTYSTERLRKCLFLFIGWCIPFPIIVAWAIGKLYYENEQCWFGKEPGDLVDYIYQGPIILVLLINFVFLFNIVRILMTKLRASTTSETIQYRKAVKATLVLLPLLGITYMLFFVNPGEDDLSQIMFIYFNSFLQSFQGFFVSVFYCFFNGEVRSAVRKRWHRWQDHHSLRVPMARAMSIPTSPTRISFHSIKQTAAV
T1 sequence (P24387 whole entry): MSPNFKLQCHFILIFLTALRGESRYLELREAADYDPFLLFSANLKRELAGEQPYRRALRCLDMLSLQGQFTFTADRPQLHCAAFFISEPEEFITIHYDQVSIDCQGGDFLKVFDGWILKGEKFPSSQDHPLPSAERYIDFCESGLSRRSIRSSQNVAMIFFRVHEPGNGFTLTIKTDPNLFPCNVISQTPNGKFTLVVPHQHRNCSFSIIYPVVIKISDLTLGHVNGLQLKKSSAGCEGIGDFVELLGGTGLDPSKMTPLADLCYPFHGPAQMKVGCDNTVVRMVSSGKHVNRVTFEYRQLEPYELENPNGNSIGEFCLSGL

[3] = Trypanosoma cruzi growth suppression in host cells – NIH3T3 host cells, beta-gal luminescence, confirmation (AID 2044); type: functional, cell-based;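 also: intracellular parasites grown in NIH/3T3 mouse fibroblasts as host cells; luminescent beta-galactosidase reporter signal from transgenic T. cruzi replicating inside host cells; inhibitors lower the luminescence signal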
[4] = NIH3T3 cell viability loss – ATP luminescence, mouse fibroblasts, counter-screen, dose response (AID 2010); type: functional, cell-based;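 also: cells exposed to compound for about 90 hours before reading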
[5] = target: T1, Corticotropin-releasing factor receptor 2/Corticotropin-releasing factor-binding protein; experiment: Dose Response confirmation of uHTS hits for small molecule antagonists of the CRF-binding protein and CRF-R2 receptor complex.; type: functional; conditions: read-out: IC50_Mean
[6] = viability of uninfected HEp-2 cells – cell-based, HTS, cytotoxicity control for RSV inhibitor project, dose response (AID 2410); type: functional; conditions: human respiratory syncytial virus
[7] = target: T2, Calpain-2 catalytic subunit (Sus scrofa, UniProt P43367); experiment: m-calpain protease blockers, concentration series – biochemical, fluorogenic peptide substrate, dose response (AID 1420); type: functional
T2 sequence (P43367 whole entry): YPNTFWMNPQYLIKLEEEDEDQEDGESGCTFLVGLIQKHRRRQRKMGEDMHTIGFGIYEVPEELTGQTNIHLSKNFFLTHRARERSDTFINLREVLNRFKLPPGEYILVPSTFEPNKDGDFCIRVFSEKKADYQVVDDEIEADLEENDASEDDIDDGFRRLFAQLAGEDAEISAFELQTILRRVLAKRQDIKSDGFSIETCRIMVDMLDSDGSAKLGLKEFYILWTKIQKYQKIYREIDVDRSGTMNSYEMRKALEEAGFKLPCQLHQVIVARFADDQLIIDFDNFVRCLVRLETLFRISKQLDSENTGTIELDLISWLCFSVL

[8] = THP-1 cell cytotoxicity, dose response, cytotoxicity control for non-replicating M. tuberculosis project (AID 489025); type: functional
[9] = target: T3, Heat shock factor protein 1 (Mus musculus, UniProt P38532); experiment: enhancement of HSF1-driven luciferase signal – cell-based, NIH3T3, luminescence, dose retest, confirmation (AID 435004); type: functional;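 also: stress induced by proteasome inhibitor MG132 added 30 min after compound; luciferase reporter driven by HSF1 response element in NIH3T3 cells; actives raise luminescence as potentiators of the MG132 stress response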
T3 sequence (P38532 whole entry): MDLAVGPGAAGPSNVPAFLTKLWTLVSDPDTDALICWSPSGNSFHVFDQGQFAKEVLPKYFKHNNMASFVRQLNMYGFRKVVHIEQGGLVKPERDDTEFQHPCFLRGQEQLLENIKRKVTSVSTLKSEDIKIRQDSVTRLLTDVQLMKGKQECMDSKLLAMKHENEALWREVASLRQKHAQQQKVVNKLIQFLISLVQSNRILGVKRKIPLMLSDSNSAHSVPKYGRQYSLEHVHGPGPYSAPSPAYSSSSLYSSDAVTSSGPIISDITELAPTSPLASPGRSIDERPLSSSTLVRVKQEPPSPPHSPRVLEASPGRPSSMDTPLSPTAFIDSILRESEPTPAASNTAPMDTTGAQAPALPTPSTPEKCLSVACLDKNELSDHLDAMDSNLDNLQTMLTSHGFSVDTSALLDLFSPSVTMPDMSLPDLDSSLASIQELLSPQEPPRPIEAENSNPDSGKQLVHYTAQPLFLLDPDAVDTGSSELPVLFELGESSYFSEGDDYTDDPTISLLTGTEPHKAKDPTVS

Vero = experiment: cells; type: functional; conditions: Chlorocebus sabaeus
[10] = viability of HCT116 lacking mutant beta-catenin – cell-based, human colon tumor, dose response (AID 1045); type: functional;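 also: HCT116 colon tumor cells with beta catenin knocked out; cells exposed to compound for 60 hours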
[11] = viability of PTEN-deleted HCT116 cells – cell-based, HCT116 PTEN knockout, dose response (AID 1047); type: functional;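 also: HCT116 colon tumor cells with PTEN knocked out; cells exposed to compound for 60 hours before readout; potency for loss of cell viability measured by luminescence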
INS1 = experiment: INS-1E survival protection against cytokine death – cell-based, luminescence, retest, dose response (AID 449756); type: functional; conditions: Rattus norvegicus;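 also: cell death triggered by IL-1 beta plus TNF-alpha plus IFN-gamma mixture; protective hits raise ATP signal compared with cytokine alone wells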
[12] = non-specific 3'UTR reporter inhibition in Clone20-Shn3RL – cell-based, Renilla luciferase, cherry-picked, counter-screen for Shn3 inhibitor project, dose response (AID 624133); type: functional
[13] = reduction of Shn3 3'UTR-driven luciferase in osteoblasts – cell-based, Clone20 osteoblasts, firefly luciferase, cherry-picked, dose response (AID 624132); type: functional;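 also: firefly luciferase luminescence from reporter carrying the Shn3 3'UTR in osteoblasts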
[14] = loss of viability in HepG2 cells – cell-based, CellTiter-Glo, cherry-picked, cytotoxicity control for Shn3 inhibitor project, dose response (AID 624134); type: functional
[15] = target: Induced myeloid leukemia cell differentiation protein Mcl-1 (Homo sapiens, UniProt Q07820); type: functional
[16] = target: T4, Rac GTPase-activating protein 1 (Homo sapiens, UniProt Q9H0H5); experiment: blockers of MgcRacGAP-driven Rac1 GTP hydrolysis – biochemical, ADP Hunter fluorescence, primary and confirmatory, confirmation (AID 624330); type: functional
T4 sequence (Q9H0H5 whole entry): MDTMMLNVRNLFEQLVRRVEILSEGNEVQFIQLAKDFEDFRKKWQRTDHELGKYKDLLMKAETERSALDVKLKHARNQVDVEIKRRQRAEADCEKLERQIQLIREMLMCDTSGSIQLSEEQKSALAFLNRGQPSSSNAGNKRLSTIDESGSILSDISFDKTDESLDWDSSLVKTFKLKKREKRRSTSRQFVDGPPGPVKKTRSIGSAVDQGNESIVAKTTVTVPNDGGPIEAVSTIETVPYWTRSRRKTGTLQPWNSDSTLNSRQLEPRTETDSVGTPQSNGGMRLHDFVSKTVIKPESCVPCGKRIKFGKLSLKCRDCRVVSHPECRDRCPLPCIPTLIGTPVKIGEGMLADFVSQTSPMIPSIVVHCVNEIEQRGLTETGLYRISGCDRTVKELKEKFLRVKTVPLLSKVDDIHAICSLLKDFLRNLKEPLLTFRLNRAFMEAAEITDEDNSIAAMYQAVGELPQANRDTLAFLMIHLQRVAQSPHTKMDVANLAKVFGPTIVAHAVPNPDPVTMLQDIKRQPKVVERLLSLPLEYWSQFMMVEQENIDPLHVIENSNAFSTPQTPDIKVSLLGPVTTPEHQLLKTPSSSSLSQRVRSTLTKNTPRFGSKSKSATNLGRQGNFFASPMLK

cells = type: functional
Cytochrome P450 3A4 = Cytochrome P450 3A4 (Homo sapiens, UniProt P08684);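 also: CYP3A4 tested as one member of a cytochrome P450 panel screen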
Cytochrome P450 1A2 = target: T5, Cytochrome P450 1A2 (Homo sapiens, UniProt P05177);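 also: PubChem cytochrome P450 panel assay, CYP1A2 panel member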
T5 sequence (P05177 whole entry): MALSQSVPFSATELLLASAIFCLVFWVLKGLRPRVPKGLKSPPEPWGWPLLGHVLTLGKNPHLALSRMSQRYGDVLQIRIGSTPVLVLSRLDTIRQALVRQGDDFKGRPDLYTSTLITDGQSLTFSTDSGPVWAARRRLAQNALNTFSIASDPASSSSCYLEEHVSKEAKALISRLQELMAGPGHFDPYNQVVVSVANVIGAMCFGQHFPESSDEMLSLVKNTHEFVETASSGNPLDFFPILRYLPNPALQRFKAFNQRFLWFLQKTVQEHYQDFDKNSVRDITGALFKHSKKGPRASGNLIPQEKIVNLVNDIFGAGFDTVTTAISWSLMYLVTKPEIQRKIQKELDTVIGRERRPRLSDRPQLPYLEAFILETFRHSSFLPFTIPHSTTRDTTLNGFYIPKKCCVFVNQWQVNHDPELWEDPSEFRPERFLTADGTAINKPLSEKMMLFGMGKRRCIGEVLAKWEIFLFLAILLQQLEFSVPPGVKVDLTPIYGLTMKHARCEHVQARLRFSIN

[17] = microbe, parasite or virus in culture; type: functional; conditions: Mycobacterium tuberculosis

Induced myeloid leukemia cell differentiation protein Mcl-1, sequence (Q07820 whole entry): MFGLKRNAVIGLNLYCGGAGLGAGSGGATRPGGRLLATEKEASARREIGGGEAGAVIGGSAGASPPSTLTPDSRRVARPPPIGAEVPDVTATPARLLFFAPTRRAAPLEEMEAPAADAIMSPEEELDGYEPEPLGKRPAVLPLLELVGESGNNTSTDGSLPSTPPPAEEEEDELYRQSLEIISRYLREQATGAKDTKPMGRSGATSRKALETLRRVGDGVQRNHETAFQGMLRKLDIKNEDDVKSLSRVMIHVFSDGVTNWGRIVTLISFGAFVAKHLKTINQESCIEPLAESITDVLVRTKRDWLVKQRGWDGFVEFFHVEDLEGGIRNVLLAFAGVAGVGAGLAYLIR
Cytochrome P450 3A4, sequence (P08684 whole entry): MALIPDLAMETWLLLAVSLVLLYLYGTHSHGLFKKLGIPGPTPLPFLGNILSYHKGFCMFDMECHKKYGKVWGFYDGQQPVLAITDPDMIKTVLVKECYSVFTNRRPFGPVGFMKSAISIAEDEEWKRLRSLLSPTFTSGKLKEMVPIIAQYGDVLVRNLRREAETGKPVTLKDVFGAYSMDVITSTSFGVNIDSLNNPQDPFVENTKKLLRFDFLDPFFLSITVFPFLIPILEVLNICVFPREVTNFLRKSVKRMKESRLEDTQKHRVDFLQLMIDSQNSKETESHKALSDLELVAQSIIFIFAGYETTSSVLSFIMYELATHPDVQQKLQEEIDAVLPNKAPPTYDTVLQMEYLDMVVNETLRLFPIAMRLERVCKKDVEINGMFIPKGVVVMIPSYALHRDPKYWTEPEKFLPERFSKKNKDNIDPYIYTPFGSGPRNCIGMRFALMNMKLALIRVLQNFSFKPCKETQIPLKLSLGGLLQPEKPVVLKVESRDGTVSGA

## CC1CCC(NC(=O)Cn2ncc3ccccc32)CC1 (configuration not stated)
[1]
  EC50: > 120 µM (not active)
H4
  EC50: > 120 µM (not active)

## O=C(Cn1cnc([N+](=O)[O-])n1)NCCc1ccccc1
[2]
  EC50: > 53 µM (inactive)
[3]
  EC50: 0.537 µM (active)
[4]
  EC50: > 60 µM (not active)
[5]
  IC50: > 47.1 µM (inactive)

## COc1ccc(CNc2ccc([N+](=O)[O-])cc2C)cc1
[6]
  CC50: 35 µM (active)
[7]
  IC50: 3.81 µM (not active)

## Cc1noc(NS(=O)(=O)c2ccc(NC(=O)c3ccc(N4C(=O)c5ccccc5C4=O)cc3)cc2)c1C
[7]
  IC50: 4.9 µM (not active)

## SC1=NC[C@H](Cc2cccc3ccccc23)N1CC1CCCCC1
[7]
  IC50: > 50 µM (not active)

## Cc1ccc(CN2CCSc3ccc(C(=O)N4CCN(c5ncccn5)CC4)cc32)cc1
[2]
  EC50: > 53 µM (inactive)
[5]
  IC50: > 47.1 µM (inactive)

## CC(C)(C)c1csc(NC(=O)c2ccccc2O)n1
[8]
  CC50: 38.7 µM (active)

## O=C(CCC(=O)N1CCOc2ccccc21)NC1CCCCCC1
[2]
  EC50: > 53 µM (inactive)
[5]
  IC50: > 47.1 µM (inactive)

## CN1C(=O)c2ccc(C(=O)NCc3ccc4c(c3)OCO4)cc2C1=O
[7]
  IC50: 23.2 µM (not active)

## Cc1ccc(C2(C)CC(C)(C)N(C(=O)CSc3nnc(C)s3)c3ccccc32)cc1 (configuration not stated)
[2]
  EC50: > 53 µM (inactive)
[5]
  IC50: > 47.1 µM (inactive)

## COc1cc(/C=C/C(=O)N2C(=O)c3cccc(N)c3C2=O)cc(OC)c1OC
[9]
  EC50: 2.98 µM (active)
Vero
  CC50: 17.8 µM (active)

## CCCCc1ccc(NC(=O)C2CCCO2)cc1 (configuration not stated)
[7]
  IC50: 13.4 µM (not active)

## CC(=O)N[C@H]1C[C@@H]1c1ccccc1
[2]
  EC50: > 53 µM (inactive)
[5]
  IC50: > 47.1 µM (inactive)

## O=C(C1CC1)N1CCc2cc(Br)cc(S(=O)(=O)NC3CCCCC3)c21
[7]
  IC50: > 50 µM (not active)

## c1ccc(N2CCN(c3ncnc4scc(-c5cccs5)c34)CC2)cc1
[10]
  EC50: 71.5 µM (active)
[7]
  IC50: 1.1 µM (not active)
[11]
  EC50: 56.8 µM (active)

## CC1=C(C#N)C(C(F)(F)F)(C(F)(F)F)NC(c2ccco2)=N1
INS1
  AC50: 4.65 µM (active)
[12]
  AC50: 10.1 µM (active)
[13]
  AC50: 7.72 µM (active)
[14]
  AC50: > 70 µM (inactive)

## CCN(CC)c1ccc(NC(=O)c2ccccc2OCC(=O)OC)cc1
[15]
  IC50: 6.35 µM (not active)

## O=C(/C=C/c1cccs1)N1CCOCC1
[7]
  IC50: > 50 µM (not active)

## COc1ccccc1-c1c(NC(=O)C(C)C)n(C)c2ccccc2c1=O
[2]
  EC50: > 53 µM (inactive)
[5]
  IC50: > 47.1 µM (inactive)

## CCOc1cc(/C=C(\C#N)c2n[nH]c(N)c2C#N)ccc1O
[15]
  IC50: 5.24 µM (active)
[16]
  IC50: 17.1 µM (active)

## CC1(C(=O)OCC(=O)Nc2nnc(-c3ccccc3)o2)CC1(Cl)Cl (configuration not stated)
[8]
  CC50: > 40 µM (active)
cells
  IC50: 24.9 µM (active)

## CCNc1nc(NCC)nc(C(=O)NN)n1
[15]
  IC50: 2.32 µM (active)

## CC1CCCN(C(=O)c2sc3cc([N+](=O)[O-])ccc3c2Cl)C1 (configuration not stated)
[7]
  IC50: 7.61 µM (active)
Cytochrome P450 3A4
  AC50: 17.8 µM (inconclusive)
Cytochrome P450 1A2
  AC50: 15.8 µM (inconclusive)

## O=C(C[C@H]1C/C=C\C[C@@H](Cc2ccc(F)cc2)C(=O)O[C@H](c2ccccc2)CNC1=O)NCCO
[2]
  EC50: > 53 µM (inactive)
[5]
  IC50: > 47.1 µM (inactive)

## Cc1cccc(C(=O)Oc2ccc(/C=N/NC(=O)c3ccc(O)cc3)cc2)c1
[2]
  EC50: > 53 µM (inactive)
[5]
  IC50: > 47.1 µM (inactive)

## CC(/C=N/NC(=O)c1cc(-c2ccc3ccccc3c2)[nH]n1)=C\c1ccco1
[15]
  IC50: 4.1 µM (active)
[17]
  CC50: 37.2 µM (active)

## Cc1cc([N+](=O)[O-])c(-c2ccc(/C=N/n3cnnc3)o2)cc1Cl
[7]
  IC50: 1.59 µM (not active)

## C/N=C1/S/C(=C\c2ccc(OCC(=O)OC)c(OC)c2)C(=O)N1C
[8]
  CC50: > 40 µM (active)
cells
  IC50: 4.45 µM (active)
